Results published in patent publication US20210040118A1, “IMMUNOMODULATORS, COMPOSITIONS AND METHODS THEREOF” (BETTA PHARMACEUTICALS CO., LTD, priority 2018, published 2021).

Target: T1, PD-1/PD-L1 (Homo sapiens, UniProt Q9NZQ7)
T1 construct: Recombinant human PD-L1 protein (19-238) with a His-tag at the C-terminus; purchased AcroBiosystems PD1-H5229 (PD-L1); PD1-H5257 (PD-1)
Test: PD-1/PD-L1 homogenous time-resolved fluorescence (HTRF) binding assay
Details: recombinant human PD-L1 (19-238) His-tag / human PD-1 (25-167) Fc tag, class symbols
Summary of the method: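 HTRF binding of human PD-1 (25-167, Fc-tagged) at 3 nM and PD-L1 (19-238, His-tagged) at 10 nM, preincubated 40 min with inhibitor in PBS pH 7.4, 0.05% Tween-20, 0.1% BSA, 1% DMSO, 25°C. Eu anti-IgG (1 nM) and anti-His-APC (20 nM) added, 60 min; 665/620 nm ratio; IC50 from curve fit.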

T1 sequence (Q9NZQ7 19-238): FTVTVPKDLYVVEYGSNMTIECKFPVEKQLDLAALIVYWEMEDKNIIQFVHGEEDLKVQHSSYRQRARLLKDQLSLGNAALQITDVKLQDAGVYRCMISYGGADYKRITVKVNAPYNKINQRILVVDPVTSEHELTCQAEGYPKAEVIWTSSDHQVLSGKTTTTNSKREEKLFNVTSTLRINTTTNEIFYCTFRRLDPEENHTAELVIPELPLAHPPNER

Row | Compound | IC50 [nM]
1 | Cc1c(NC(=O)c2nnc([C@H](C)N3CCCC[C@H]3C(=O)O)s2)cccc1-c1cccc(NC(=O)c2nnc([C@H](C)N3CCCC[C@H]3C(=O)O)s2)c1C [Example 17, (2S,2'S)-1,1′-((1S,1'S)-((((2,2′-dimethyl-[1,1′-biphenyl]-3,3′-diyl)bis(azanediyl))bis(carbonyl))bis(1,3,4-thiadiazole-5,2-diyl))bis(ethane-1,1-diyl))bis(piperidine-2-carboxylic acid)] | < 25
2 | Cc1c(NC(=O)c2ccc3c(n2)CCN(CCN2CCOCC2)C3)cccc1-c1cccc(NC(=O)c2ccc3c(n2)CCN(CCN2CCOCC2)C3)c1C [Example 176, N,N′-(2,2′-dimethyl-[1,1′-biphenyl]-3,3′-diyl)bis(6-(2-morpholinoethyl)-5,6,7,8-tetrahydro-1,6-naphthyridine-2-carboxamide)] | 25 to 100
3 | Cc1nc(C(=O)Nc2cccc(-c3cccc(NC(=O)c4nc(C)c(CN[C@H](C(=O)O)C5CCOCC5)s4)c3C)c2C)sc1CN[C@H](C(=O)O)C1CCOCC1 [Example 53, (2S,2'S)-2,2′-(2,2′-(2,2′-dimethylbiphenyl-3,3′-diyl)bis(azanediyl)bis(oxomethylene)bis(4-methylthiazole-5,2-diyl))bis(methylene)bis(azanediyl)bis(2-(tetrahydro-2H-pyran-4-yl)acetic acid)] | < 25
4 | Cc1c(NC(=O)c2ccc3c(n2)CCN(C)C3)cccc1-c1cccc(NC(=O)c2ccc3c(n2)CCN(C)C3)c1C [Example 175, N,N′-(2,2′-dimethyl-[1,1′-biphenyl]-3,3′-diyl)bis(6-methyl-5,6,7,8-tetrahydro-1,6-naphthyridine-2-carboxamide)] | < 25
5 | Cc1c(NC(=O)c2nc3c(o2)CNCC3)cccc1-c1cccc(NC(=O)c2nc3c(o2)CNCC3)c1C [Example 13, N,N′-(2,2′-dimethyl-[1,1′-biphenyl]-3,3′-diyl)bis(4,5,6,7-tetrahydrooxazolo[5,4-c]pyridine-2-carboxamide)] | 25 to 100
6 | Cc1c(NC(=O)c2nnc(CNC(=N)N)s2)cccc1-c1cccc(NC(=O)c2nnc(CNC(=N)N)s2)c1C [Example 37, N,N′-(2,2′-dimethyl-[1,1′-biphenyl]-3,3′-diyl)bis(5-(guanidinomethyl)-1,3,4-thiadiazole-2-carboxamide)] | < 25
7 | Cc1c(NC(=O)c2ccc3c(n2)CCN(CC(=O)O)C3)cccc1-c1cccc(NC(=O)c2ccc3c(n2)CCN(CC(=O)O)C3)c1C [Example 173, 2,2′-((((2,2′-dimethyl-[1,1′-biphenyl]-3,3′-diyl)bis(azanediyl))bis(carbonyl))bis(7,8-dihydro-1,6-naphthyridine-2,6(5H)-diyl))diacetic acid] | < 25
8 | Cc1c(NC(=O)c2nnc([C@H](C)N)o2)cccc1-c1cccc(NC(=O)c2nnc([C@H](C)N)o2)c1C [Example 9, N,N′-(2,2′-dimethyl-[1,1′-biphenyl]-3,3′-diyl)bis(5-((S)-1-aminoethyl)-1,3,4-oxadiazole-2-carboxamide)] | < 25
9 | Cc1c(NC(=O)c2ccc3c(n2)CCNC3)cccc1-c1cccc(NC(=O)c2ccc3c(n2)CCNC3)c1C [Example 167, N,N′-(2,2′-dimethyl-[1,1′-biphenyl]-3,3′-diyl)bis(5,6,7,8-tetrahydro-1,6-naphthyridine-2-carboxamide)] | < 25
10 | Cc1oc(=O)oc1COC(=O)N1CCc2nc(C(=O)Nc3cccc(-c4cccc(NC(=O)c5ccc6c(n5)CCN(C(=O)OCc5oc(=O)oc5C)C6)c4C)c3C)ccc2C1 [Example 184, bis((5-methyl-2-oxo-1,3-dioxol-4-yl)methyl) 2,2′-(((2,2′-dimethyl-[1,1′-biphenyl]-3,3′-diyl)bis(azanediyl))bis(carbonyl))bis(7,8-dihydro-1,6-naphthyridine-6(5H)-carboxylate)] | > 200
11 | NC(=S)NCCN1CCc2nc(C(=O)N3CCc4c(-c5cccc6c5CCN6C(=O)c5nc6c(s5)CN(CCNC(N)=S)CC6)cccc43)sc2C1 [Example 133, 1,1′-((([4,4′-biindoline]-1,1′-dicarbonyl)bis(6,7-dihydrothiazolo[5,4-c]pyridine2,5(4H)-diyl))bis(ethane-2,1-diyl))bis(thiourea)] | < 25
12 | Cc1c(-c2cccc(N(C)C(=O)c3cc4c(s3)CNCC4)c2C)cccc1N(C)C(=O)c1cn2c(n1)CNCC2 [Example 5, N-(2,2′-dimethyl-3′-(N-methyl-5,6,7,8-tetrahydroimidazo[1,2-a]pyrazine-2-carboxamido)-[1,1′-biphenyl]-3-yl)-N-methyl-4,5,6,7-tetrahydrothieno[2,3-c]pyridine-2-carboxamide] | 100 to 200
13 | O=C(Nc1cccc(-c2cccc3c2CCN3C(=O)c2nc3c(s2)CNCC3)c1Cl)c1ncc(CNCCO)s1 [Example 101, N-(2-chloro-3-(1-(4,5,6,7-tetrahydrothiazolo[5,4-c]pyridine-2-carbonyl)indolin-4-yl)phenyl)-5-(((2-hydroxyethyl)amino)methyl)thiazole-2-carboxamide] | < 25
14 | Cc1nc(C(=O)Nc2cccc(-c3cccc(NC(=O)c4nc(C)c(CN5CCCC5)s4)c3C)c2C)sc1CN1CCCC1 [Example 28, N,N′-(2,2′-dimethyl-[1,1′-biphenyl]-3,3′-diyl)bis(4-methyl-5-(pyrrolidin-1-ylmethyl)thiazole-2-carboxamide)] | < 25
15 | O=C(c1nc2c(s1)CN(CCCB(O)O)CC2)N1CCc2c(-c3cccc4c3CCN4C(=O)c3nc4c(s3)CN(CCCB(O)O)CC4)cccc21 [Example 121, ((([4,4′-biindoline]-1,1′-dicarbonyl)bis(6,7-dihydrothiazolo[5,4-c]pyridine-2,5(4H)-diyl))bis(propane-3,1-diyl))diboronic acid] | < 25
16 | Cc1c(NC(=O)c2nc3c(s2)CN(CCO)CC3)cccc1-c1cccc(NC(=O)c2nc3c(s2)CN(CCO)CC3)c1C [Example 82, N,N′-(2,2′-dimethyl-[1,1′-biphenyl]-3,3′-diyl)bis(5-(2-hydroxyethyl)-4,5,6,7-tetrahydrothiazolo[5,4-c]pyridine-2-carboxamide)] | < 25
17 | CN(C)Cc1cnc(C(=O)N2CCc3c(-c4cccc5c4CCN5C(=O)c4ncc(CN(C)C)s4)cccc32)s1 [Example 112, [4,4′-biindoline]-1,1′-diylbis((5-((dimethylamino)methyl)thiazol-2-yl)methanone)] | < 25
18 | CC(=O)N1CCc2c(nc(C(=O)Nc3cccc(-c4cccc(NC(=O)c5ccc6c(n5)CCNC6)c4C)c3C)n2C)C1 [Example 183, N-(3′-(5-acetyl-1-methyl-4,5,6,7-tetrahydro-1H-imidazo[4,5-c]pyridine-2-carboxamido)-2,2′-dimethyl-[1,1′-biphenyl]-3-yl)-5,6,7,8-tetrahydro-1,6-naphthyridine-2-carboxamide] | < 25
19 | Cc1c(NC(=O)c2nnc(CN)s2)cccc1-c1cccc(NC(=O)c2nnc(CN)s2)c1C [Example 20, N,N′-(2,2′-dimethyl-[1,1′-biphenyl]-3,3′-diyl)bis(5-(aminomethyl)-1,3,4-thiadiazole-2-carboxamide)] | < 25
20 | O=C(c1nc2c(s1)CN(C1COC1)CC2)N1CCc2c(-c3cccc4c3CCN4C(=O)c3nc4c(s3)CN(C3COC3)CC4)cccc21 [Example 88, [4,4′-biindoline]-1,1′-diylbis((5-(oxetan-3-yl)-4,5,6,7-tetrahydrothiazolo[5,4-c]pyridin-2-yl)methanone)] | < 25
21 | Cc1c(NC(=O)c2nc3c(s2)CN(C)CC3)cccc1-c1cccc(NC(=O)c2nc3c(s2)CN(C)CC3)c1Cl [Example 49, N,N′-(2-chloro-2′-methylbiphenyl-3,3′-diyl)bis(5-methyl-4,5,6,7-tetrahydrothiazolo[5,4-c]pyridine-2-carboxamide)] | < 25
22 | Cc1c(NC(=O)c2ccc3c(n2)CCN(CC(F)F)C3)cccc1-c1cccc(NC(=O)c2ccc3c(n2)CCN(CC(F)F)C3)c1C [Example 187, N,N′-(2,2′-dimethyl-[1,1′-biphenyl]-3,3′-diyl)bis(6-(2,2-difluoroethyl)-5,6,7,8-tetrahydro-1,6-naphthyridine-2-carboxamide)] | 25 to 100
23 | CC(c1nc2c(s1)CN(C)CC2)N1CCc2c(-c3cccc4c3CCN4C(C)c3nc4c(s3)CN(C)CC4)cccc21 (centres unmarked) [Example 47, 1,1′-bis(1-(5-methyl-4,5,6,7-tetrahydrothiazolo[5,4-c]pyridin-2-yl)ethyl)-4,4′-biindoline] | < 25
24 | NC(=O)CN1CCc2nc(C(=O)N3CCc4c(-c5cccc6c5CCN6C(=O)c5nc6c(s5)CN(CC(=O)O)CC6)cccc43)sc2C1 [Example 107, 2-(2-(1′-(5-(2-amino-2-oxoethyl)-4,5,6,7-tetrahydrothiazolo[5,4-c]pyridine-2-carbonyl)-[4,4′-biindoline]-1-carbonyl)-6,7-dihydrothiazolo[5,4-c]pyridin-5(4H)-yl)acetic acid] | < 25

Same assay, conditions: recombinant human PD-L1 (19-238) His-tag / human PD-1 (25-167) Fc tag, numeric values

Row | Compound | IC50 [nM]
25 | CN1CCc2nc(C(=O)Nc3cccc(-c4cccc(NC(=O)c5nc6c(s5)CN(C)CC6)c4Cl)c3Cl)sc2C1 [Example 44, N,N′-(2,2′-dichloro-[1,1′-biphenyl]-3,3′-diyl)bis(5-methyl-4,5,6,7-tetrahydrothiazolo[5,4-c]pyridine-2-carboxamide)] | 0.62
26 | Cc1c(NC(=O)c2cc3c(s2)CNCC3)cccc1-c1cccc(NC(=O)c2cc3c(s2)CNCC3)c1C [Example 32, N,N′-(2,2′-dimethyl-[1,1′-biphenyl]-3,3′-diyl)bis(4,5,6,7-tetrahydrothieno[2,3-c]pyridine-2-carboxamide)] | 18.1
